The structures appear in SMILES notation.

One test deals with A549 cells. The test can be described thus: Inhibition of KRas-mediated phosphorylation of ERK (Cisbio HTRF pERK), A549 cells. Format: cell-based. The note with it: Homo sapiens, A549, 3 h, 3 hr compound incubation, Cisbio pERK HTRF.
The next test addresses KRas G12V (Homo sapiens, UniProt P01116, G12V). The test can be described thus: biochemical. The note with it: Binding to KRas (IC50 nM) G12V, TR-FRET displacement, KRas G12V.
In another test the target is KRas G12A (Homo sapiens, UniProt P01116, G12A). Type of test: binding. The conditions noted are these: for inhibition at 0.01 µM: single point, 10 nM compound, read-out: Binding to KRas (% inhibition at 10 nM) G12A; for IC50: TR-FRET displacement, read-out: Binding to KRas (IC50 nM) G12A.
KRas G12A, sequence (P01116 1-169 isoform P01116-2 G12A): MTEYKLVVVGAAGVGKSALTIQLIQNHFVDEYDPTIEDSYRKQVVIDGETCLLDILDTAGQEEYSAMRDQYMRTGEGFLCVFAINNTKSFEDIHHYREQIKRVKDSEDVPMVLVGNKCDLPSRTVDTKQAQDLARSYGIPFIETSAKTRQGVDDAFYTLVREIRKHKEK
In a further test the test system is HCT116 cells. Kind of test: Inhibition of KRas-mediated phosphorylation of ERK (Cisbio HTRF pERK), HCT116 cells. Type of test: cell-based. The conditions noted are these: Homo sapiens, HCT-116, 3 h, 3 hr compound incubation, Cisbio pERK HTRF.
Another test addresses KRas Q61H (Homo sapiens, UniProt P01116, Q61H). Kind of test: KRas binding assay (TR-FRET displacement), KRas Q61H. The note with it: for inhibition at 0.01 µM: single point, 10 nM compound; for IC50: TR-FRET displacement.
In a further test the target is KRas G12D (Homo sapiens, UniProt P01116, G12D). Kind of test: biochemical. The note with it: Binding to KRas (IC50 nM) G12D, TR-FRET displacement, KRas G12D.
KRas G12D, sequence (P01116 1-169 isoform P01116-2 G12D): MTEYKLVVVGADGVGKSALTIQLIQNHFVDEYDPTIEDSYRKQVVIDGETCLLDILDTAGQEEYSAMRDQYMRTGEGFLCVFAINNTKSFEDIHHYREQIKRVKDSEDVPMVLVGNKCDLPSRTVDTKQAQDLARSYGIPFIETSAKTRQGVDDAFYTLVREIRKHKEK
The next test deals with KRas G12R (Homo sapiens, UniProt P01116, G12R). The test can be described thus: biochemical. The note with it: Binding to KRas (IC50 nM) G12R, TR-FRET displacement, KRas G12R.
KRas G12R, sequence (P01116 1-169 isoform P01116-2 G12R): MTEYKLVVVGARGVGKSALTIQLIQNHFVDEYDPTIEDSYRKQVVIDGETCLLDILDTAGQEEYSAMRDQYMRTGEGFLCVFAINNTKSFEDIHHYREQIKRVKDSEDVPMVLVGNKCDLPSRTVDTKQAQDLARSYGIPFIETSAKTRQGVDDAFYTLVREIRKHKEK
A further test addresses KRas G13D (Homo sapiens, UniProt P01116, G13D). Format: binding. The conditions noted are these: for inhibition at 0.01 µM: single point, 10 nM compound, read-out: Binding to KRas (% inhibition at 10 nM) G13D; for IC50: TR-FRET displacement, read-out: Binding to KRas (IC50 nM) G13D.
The next test has as its target KRas WT (Homo sapiens, UniProt P01116). The test can be described thus: KRas binding assay (TR-FRET displacement), KRas WT. The note with it: for inhibition at 0.01 µM: single point, 10 nM compound; for IC50: TR-FRET displacement.
The target of a further test is KRas G12S (Homo sapiens, UniProt P01116, G12S). Type of test: binding. The conditions noted are these: for inhibition at 0.01 µM: single point, 10 nM compound, read-out: Binding to KRas (% inhibition at 10 nM) G12S; for IC50: TR-FRET displacement, read-out: Binding to KRas (IC50 nM) G12S.
KRas G12S, sequence (P01116 1-169 isoform P01116-2 G12S): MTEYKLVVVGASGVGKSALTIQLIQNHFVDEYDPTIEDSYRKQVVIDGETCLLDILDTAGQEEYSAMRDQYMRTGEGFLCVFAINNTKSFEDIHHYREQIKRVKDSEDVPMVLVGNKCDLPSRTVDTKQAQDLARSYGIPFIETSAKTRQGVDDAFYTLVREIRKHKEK
Another test relates to H727 cells. The test can be described thus: Inhibition of KRas-mediated phosphorylation of ERK (Cisbio HTRF pERK), H727 cells. Format: cell-based. The note with it: Homo sapiens, NCI-H727, 3 h, 3 hr compound incubation, Cisbio pERK HTRF.
The next test has as its system ASPC1 cells. The test can be described thus: Inhibition of KRas-mediated phosphorylation of ERK (Cisbio HTRF pERK), ASPC1 cells. Type of test: cell-based. The note with it: Homo sapiens, ASPC1, 3 h, AsPC-1 cells; 3 hr compound incubation; Cisbio pERK HTRF.
The subject of a further test is MKN1 cells. Kind of test: Inhibition of KRas-mediated phosphorylation of ERK (Cisbio HTRF pERK), MKN1 cells. The conditions noted are these: Homo sapiens, MKN-1, 3 hour compound incubation, Cisbio pERK HTRF. Type of test: cell-based. Summed up:
(§1)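 Day 1: 6,000 cells/well plated, RPMI + 10% FBS.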

The next test deals with KRas G12C (Homo sapiens, UniProt P01116, G12C). Type of test: binding. The conditions noted are these: for inhibition at 0.01 µM: single point, 10 nM compound, read-out: Binding to KRas (% inhibition at 10 nM) G12C; for IC50: TR-FRET displacement, read-out: Binding to KRas (IC50 nM) G12C.
KRas G12C, sequence (P01116 1-169 isoform P01116-2 G12C): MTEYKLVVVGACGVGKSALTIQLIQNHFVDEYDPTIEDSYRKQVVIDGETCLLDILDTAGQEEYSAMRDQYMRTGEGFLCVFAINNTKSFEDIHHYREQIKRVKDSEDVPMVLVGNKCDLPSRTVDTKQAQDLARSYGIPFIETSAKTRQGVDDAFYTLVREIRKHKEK
In another test the test system is PSN1 cells. The test can be described thus: Inhibition of KRas-mediated phosphorylation of ERK (Cisbio HTRF pERK), PSN1 cells. The conditions noted are these: Homo sapiens, PSN1, 3 h, 3 hour compound incubation, Cisbio pERK HTRF. Format: cell-based. The procedure, abridged:
as §1

Another test concerns H460 cells. The test can be described thus: Inhibition of KRas-mediated phosphorylation of ERK (Cisbio HTRF pERK), H460 cells. Format: cell-based. The note with it: Homo sapiens, NCI-H460, 3 h, 3 hr compound incubation, Cisbio pERK HTRF.
The next test deals with H358 cells. The test can be described thus: Inhibition of KRas-mediated phosphorylation of ERK (Cisbio HTRF pERK), H358 cells. Type of test: cell-based. The conditions noted are these: Homo sapiens, NCI-H358, 3 h, 3 hr compound incubation, Cisbio pERK HTRF.

KRas G13D, sequence (P01116 1-169 isoform P01116-2 G13D): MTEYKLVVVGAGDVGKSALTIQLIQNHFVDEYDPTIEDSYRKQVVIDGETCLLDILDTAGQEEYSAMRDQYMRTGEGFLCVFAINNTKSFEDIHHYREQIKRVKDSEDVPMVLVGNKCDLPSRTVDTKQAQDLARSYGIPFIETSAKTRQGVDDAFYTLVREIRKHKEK
KRas Q61H, sequence (P01116 1-169 isoform P01116-2 Q61H): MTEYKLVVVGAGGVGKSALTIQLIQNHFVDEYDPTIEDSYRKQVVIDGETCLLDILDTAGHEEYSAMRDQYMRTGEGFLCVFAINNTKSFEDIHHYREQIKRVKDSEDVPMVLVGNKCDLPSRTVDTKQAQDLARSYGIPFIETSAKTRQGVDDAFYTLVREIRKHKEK
KRas G12V, sequence (P01116 1-169 isoform P01116-2 G12V): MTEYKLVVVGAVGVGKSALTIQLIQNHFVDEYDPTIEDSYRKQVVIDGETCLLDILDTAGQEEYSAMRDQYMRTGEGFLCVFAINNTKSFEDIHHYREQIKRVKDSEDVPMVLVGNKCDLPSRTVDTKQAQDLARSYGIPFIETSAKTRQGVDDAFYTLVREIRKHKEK
KRas WT, sequence (P01116 1-169 isoform P01116-2): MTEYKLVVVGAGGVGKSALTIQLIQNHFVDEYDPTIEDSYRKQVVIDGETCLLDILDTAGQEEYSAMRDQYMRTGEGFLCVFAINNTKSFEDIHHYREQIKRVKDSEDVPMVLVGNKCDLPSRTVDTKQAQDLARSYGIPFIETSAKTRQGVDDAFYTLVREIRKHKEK

Consider `CCc1c(F)ccc2cc(O)cc(N3CCc4c(nc(OC[C@@]56CCCN5C[C@H](F)C6)nc4N4CCCn5nc(C(=O)N6CCN(C)CC6)cc5C4)C3)c12` [Example 402, (5-(7-(8-ethyl-7-fluoro-3-hydroxynaphthalen-1-yl)-2-(((2R,7aS)-2-fluorohexahydro-1H-pyrrolizin-7a-yl)methoxy)-5,6,7,8-tetrahydropyrido[3,4-d]pyrimidin-4-yl)-5,6,7,8-tetrahydro-4H-pyrazolo[1,5-a][1,4]diazepin-2-yl)(4-methylpiperazin-1-yl)methanone], for which the IC50 was 23 nM in the test on A549 cells; < 2 nM on KRas G12V; 54 nM in the test on HCT116 cells; < 2 nM at KRas G12D; < 2 nM at KRas G12R; 10 nM in the test on H727 cells. In addition, the half-maximal inhibitory concentration (IC50) in the test on ASPC1 cells worked out at 2 nM; in the test with MKN1 cells, 5.7 nM; in the test with PSN1 cells, 3910 nM; in the test with H460 cells, 24 nM. Also, the inhibition at 0.01 µM on KRas G12A is 98%; on KRas Q61H, 98%; at KRas G13D it was 98%; on KRas WT it was 98%; on KRas G12S, 99%; on KRas G12C, 100%.
As to `CCc1c(F)ccc2cc(O)cc(N3CCc4c(nc(OC[C@@]56CCCN5C[C@H](F)C6)nc4N4CCCn5nc(C(=O)N(C)C)nc5C4)C3)c12` [Example 403, 8-(7-(8-ethyl-7-fluoro-3-hydroxynaphthalen-1-yl)-2-(((2R,7aS)-2-fluorohexahydro-1H-pyrrolizin-7a-yl)methoxy)-5,6,7,8-tetrahydropyrido[3,4-d]pyrimidin-4-yl)-N,N-dimethyl-6,7,8,9-tetrahydro-5H-[1,2,4]triazolo[1,5-a][1,4]diazepine-2-carboxamide], the 50% inhibitory concentration (IC50) in the test with A549 cells is 3 nM; at KRas G12V, < 2 nM; in the test on HCT116 cells it was 44 nM; on KRas G12D, < 2 nM; on KRas G12R, < 2 nM; with H727 cells it was 7 nM. The IC50 was 2 nM in the test on ASPC1 cells, 2 nM in the test on MKN1 cells, 2940 nM in the test with PSN1 cells and 18 nM in the test on H460 cells. For the same molecule, the inhibition at 0.01 µM on KRas G12A, at KRas Q61H, on KRas G13D, at KRas WT, at KRas G12S and at KRas G12C was 100% each time.
For the molecule `CCc1c(F)ccc2cc(O)cc(N3CCc4c(nc(OC[C@@]56CCCN5C[C@H](F)C6)nc4N4CCCn5nc(NC)c(F)c5C4)C3)c12` [Example 406, 5-ethyl-6-fluoro-4-(4-(3-fluoro-2-(methylamino)-7,8-dihydro-4H-pyrazolo[1,5-a][1,4]diazepin-5(6H)-yl)-2-(((2R,7aS)-2-fluorohexahydro-1H-pyrrolizin-7a-yl)methoxy)-5,6-dihydropyrido[3,4-d]pyrimidin-7(8H)-yl)naphthalen-2-ol], the IC50 in the test on A549 cells was 110 nM; at KRas G12V it was 3 nM; in the test on HCT116 cells, 331 nM; on KRas G12D, < 2 nM; on KRas G12R it was < 2 nM; with H727 cells, 100 nM. The IC50 is 59 nM in the test with ASPC1 cells, 24.6 nM in the test with MKN1 cells, > 10000 nM with PSN1 cells and 143 nM in the test on H460 cells. The inhibition at 0.01 µM at KRas G12A stood at 73%; at KRas Q61H it was 66%; on KRas G13D, 70%; at KRas WT, 68%; at KRas G12S, 82%; at KRas G12C it was 87%.
Consider `C[C@@H]1C[C@@H]1c1c(Cl)cc2[nH]ncc2c1N1CCc2c(nc(OCC34CCCN3CCC4)nc2N2CCC[C@]3(C2)NC(=O)NC3=O)C1` [Example 449, (R)-7-(7-(6-chloro-5-((1S,2R)-2-methylcyclopropyl)-1H-indazol-4-yl)-2-((hexahydro-1H-pyrrolizin-7a-yl)methoxy)-5,6,7,8-tetrahydropyrido[3,4-d]pyrimidin-4-yl)-1,3,7-triazaspiro[4.5]decane-2,4-dione], for which the IC50 was < 2 nM at KRas G12V; < 2 nM at KRas G12A; < 2 nM at KRas Q61H; 3 nM on KRas G12D; < 2 nM at KRas G12R; < 2 nM at KRas G13D. In addition, the IC50 on KRas WT is < 2 nM; at KRas G12S it was < 2 nM; in the test on H727 cells, 2690 nM; in the test on ASPC1 cells, 5760 nM; in the test with MKN1 cells, 53.7 nM; at KRas G12C it was < 2 nM. The 50% inhibitory concentration (IC50) with PSN1 cells was > 10000 nM.
Regarding `CN(C)C(=O)c1cc2n(n1)CCCN(c1nc(OC[C@@]34CCCN3C[C@H](F)C4)nc3c1CCN(c1cccc4cccc(Cl)c14)C3)C2` [Example 483, 5-(7-(8-chloronaphthalen-1-yl)-2-(((2R,7aS)-2-fluorohexahydro-1H-pyrrolizin-7a-yl)methoxy)-5,6,7,8-tetrahydropyrido[3,4-d]pyrimidin-4-yl)-N,N-dimethyl-5,6,7,8-tetrahydro-4H-pyrazolo[1,5-a][1,4]diazepine-2-carboxamide], the IC50 at KRas G12V was 20 nM; at KRas G12A it was 81 nM; at KRas Q61H, 238 nM; on KRas G12D, 9 nM; on KRas G12R, 57 nM; at KRas G13D it was 239 nM. Besides, the IC50 came out at 150 nM at KRas WT; 46 nM on KRas G12S; 1220 nM in the test with H727 cells; 1160 nM in the test with ASPC1 cells; 1470 nM with MKN1 cells; 42 nM at KRas G12C. For the same molecule, in the test on PSN1 cells, the IC50 is > 10000 nM.
As to `C=C1CN2CCCC2(COc2nc3c(c(N4CCC[C@@](C)(O)C4)n2)CCN(c2cc(O)cc4ccc(F)c(CC)c24)C3)C1` (stereo partly drawn) [Example 580, (3R)-1-(7-(8-ethyl-7-fluoro-3-hydroxynaphthalen-1-yl)-2-((2-methylenetetrahydro-1H-pyrrolizin-7a(5H)-yl)methoxy)-5,6,7,8-tetrahydropyrido[3,4-d]pyrimidin-4-yl)-3-methylpiperidin-3-ol], the IC50 is 26 nM with A549 cells; < 2 nM on KRas G12V; 71 nM in the test on HCT116 cells; < 2 nM on KRas G12D; < 2 nM at KRas WT; < 2 nM at KRas G12S. Moreover, the concentration for half-maximal inhibition (IC50) in the test on H727 cells is 71 nM; in the test with ASPC1 cells it was 16 nM; with MKN1 cells, 1 nM; in the test with H358 cells, 14 nM; on KRas G12C, < 2 nM; in the test on PSN1 cells, 405 nM. The midpoint of inhibition in the test on H460 cells, the IC50, lay at 17 nM.
In the case of `C=C1CN2CC(=C)CC2(COc2nc3c(c(N4CCC[C@@](C)(O)C4)n2)CCN(c2cc(O)cc4ccc(F)c(CC)c24)C3)C1` [Example 582, (R)-1-(2-((2,6-dimethylenetetrahydro-1H-pyrrolizin-7a(5H)-yl)methoxy)-7-(8-ethyl-7-fluoro-3-hydroxynaphthalen-1-yl)-5,6,7,8-tetrahydropyrido[3,4-d]pyrimidin-4-yl)-3-methylpiperidin-3-ol], the IC50 in the test on A549 cells was 86 nM; at KRas G12V, < 2 nM; in the test with HCT116 cells, 219 nM; at KRas G12D, 3 nM; at KRas WT it was < 2 nM; on KRas G12S it was 2 nM. Besides, the half-maximal inhibitory concentration (IC50) came to 204 nM in the test on H727 cells; 79 nM in the test on ASPC1 cells; 3.1 nM in the test on MKN1 cells; 40 nM in the test on H358 cells; 2 nM on KRas G12C; 2480 nM in the test on PSN1 cells. In addition, it took 63 nM to reach half-maximal inhibition in the test with H460 cells (IC50).

The values are drawn from patent publication US20250368649A1, “TETRAHYDROPYRIDOPYRIMIDINE PAN-KRAS INHIBITORS” (Mirati Therapeutics, Inc., priority 2022, published 2025).
